Measurements taken from patent US9765077B2, “Synthesis of duocarmycin analogues” (University of East Anglia, priority 2015, dated 2017).
Counter-ions that a name gives are not always drawn.

Tested on: HL60 human leukaemia cell lines
Assay: Antiproliferative activity by MTS assay (CellTiter 96 Aqueous One Solution)
Assay type: cell-based
Conditions: HL-60, HL60 cells, 72 hr treatment, triplicate
Description: Antiproliferative activity was determined by MTS assay (Howell L A, Bowater R A, O'Connell M A, Reszka A P, Neidle S, Searcey M. (2012) Synthesis of Small Molecules Targeting Multiple DNA Structures using Click Chemistry. ChemMedChem, 7, 792-804) using the CellTiter 96 Aqueous One Solution Cell Proliferation Assay (Promega) and following the manufacturer's instructions.
The HL60 cell line was purchased from ECACC (Porton Down, UK). Cells were cultured in RPMI 1640 medium supplemented with 10% foetal calf serum and 2 mM L-glutamine. HL-60 cells were passaged twice weekly and maintained between 1-9×10^5 cells/ml at 37° C. and 5% CO2.
HL-60 cells (3×10^4/100 μl) were seeded in 96-well plates and left untreated or treated with DMSO (vehicle control), duocarmycins, or doxorubicin hydrochloride at 8 concentrations (see below) in triplicate for 72 hr at 37° C. with 5% CO2. Following this, MTS assay reagent was added for 4 hrs and the absorbance measured at 490 nm using the Polarstar Optima microplate reader (BMG Labtech). IC50 values were calculated using GraphPad Prism Version 5.0 software.

IC50: 125 nM
Structure (SMILES): COc1cccc2c1C(=O)c1c(O)c3c(c(O)c1C2=O)C[C@@](O)(C(=O)CO)C[C@@H]3O[C@H]1C[C@H](N)[C@H](O)[C@H](C)O1 [Doxorubicin, doxorubicin hydrochloride]
